Test results from publication PMC10425983 (ACS Infectious Diseases, 2023).

Legend:
hERG = hERG (Homo sapiens, UniProt Q12809); assay: hERG channel blockage; type: biochemical; conditions: hERG pIC50
CYP1A2 = molecular target: T1, CYP1A2 (Homo sapiens, UniProt P05177); assay: CYP inhibition CYP1A2; type: in vitro ADME
T1 sequence (P05177 1-516): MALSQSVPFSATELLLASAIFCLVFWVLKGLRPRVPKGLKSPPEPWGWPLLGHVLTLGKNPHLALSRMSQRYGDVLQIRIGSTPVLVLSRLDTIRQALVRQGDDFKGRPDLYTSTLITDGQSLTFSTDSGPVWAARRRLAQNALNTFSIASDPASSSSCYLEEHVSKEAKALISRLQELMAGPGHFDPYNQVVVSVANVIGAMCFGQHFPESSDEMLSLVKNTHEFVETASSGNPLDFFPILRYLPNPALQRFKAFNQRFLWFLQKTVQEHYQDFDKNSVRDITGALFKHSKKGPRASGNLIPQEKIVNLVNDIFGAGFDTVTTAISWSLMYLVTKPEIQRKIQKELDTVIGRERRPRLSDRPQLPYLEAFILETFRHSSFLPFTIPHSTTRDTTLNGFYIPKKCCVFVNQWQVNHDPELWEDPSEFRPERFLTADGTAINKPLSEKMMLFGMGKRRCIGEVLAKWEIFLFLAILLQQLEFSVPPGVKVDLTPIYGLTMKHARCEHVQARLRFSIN

[1] = system: L. infantum (MHOM/MA(BE)/67/ITMAP263) amastigotes; assay: L. infantum intramacrophage amastigote assay; type: cell-based, Leishmania infantum
CYP2C8 = molecular target: T2, CYP2C8 (Homo sapiens, UniProt P10632); assay: CYP inhibition CYP2C8; type: in vitro ADME
T2 sequence (P10632 1-490): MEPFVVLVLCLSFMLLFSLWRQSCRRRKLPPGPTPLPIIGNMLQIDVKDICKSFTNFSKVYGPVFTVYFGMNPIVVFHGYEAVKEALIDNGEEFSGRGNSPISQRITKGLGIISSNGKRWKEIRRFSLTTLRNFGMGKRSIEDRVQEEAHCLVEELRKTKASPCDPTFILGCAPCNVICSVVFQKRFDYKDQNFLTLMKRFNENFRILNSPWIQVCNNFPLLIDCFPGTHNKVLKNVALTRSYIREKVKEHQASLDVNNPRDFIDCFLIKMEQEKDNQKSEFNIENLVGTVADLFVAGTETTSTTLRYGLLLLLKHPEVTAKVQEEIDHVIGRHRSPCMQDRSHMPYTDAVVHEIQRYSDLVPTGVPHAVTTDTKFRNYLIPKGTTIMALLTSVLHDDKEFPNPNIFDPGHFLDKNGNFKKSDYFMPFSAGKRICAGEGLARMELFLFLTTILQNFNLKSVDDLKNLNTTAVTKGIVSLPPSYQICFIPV

CYP2C9 = CYP2C9 (Homo sapiens, UniProt P11712); assay: CYP inhibition CYP2C9; type: in vitro ADME
[2] = Human liver microsome intrinsic clearance; type: in vitro ADME; conditions: human, human liver microsomes, pH 7.4, HLM clint
[3] = Cytotoxicity toward primary peritoneal mouse macrophages; type: cell-based; conditions: Swiss, mouse, primary peritoneal mouse macrophages (PMM), PMM pCC50, primary mouse macrophages; highest in-test concentration 64 μM
CYP2C19 = CYP2C19 (Homo sapiens, UniProt P33261); assay: CYP inhibition CYP2C19; type: in vitro ADME
[4] = MDCK-wt permeability assay; type: in vitro ADME, canine; conditions: dog
[5] = Thermodynamic aqueous solubility; type: physicochemical
CYP3A4 = CYP3A4 (Homo sapiens, UniProt P08684); assay: CYP inhibition CYP3A4; type: in vitro ADME; conditions: inhibitor class in words
CYP2D6 = CYP2D6 (Homo sapiens, UniProt P10635); assay: CYP inhibition CYP2D6; type: in vitro ADME; conditions: inhibitor class in words
[6] = Rat hepatocyte intrinsic clearance; type: in vitro ADME; conditions: rat, rat hepatocytes

Sequence of CYP2C19 (P33261 whole entry): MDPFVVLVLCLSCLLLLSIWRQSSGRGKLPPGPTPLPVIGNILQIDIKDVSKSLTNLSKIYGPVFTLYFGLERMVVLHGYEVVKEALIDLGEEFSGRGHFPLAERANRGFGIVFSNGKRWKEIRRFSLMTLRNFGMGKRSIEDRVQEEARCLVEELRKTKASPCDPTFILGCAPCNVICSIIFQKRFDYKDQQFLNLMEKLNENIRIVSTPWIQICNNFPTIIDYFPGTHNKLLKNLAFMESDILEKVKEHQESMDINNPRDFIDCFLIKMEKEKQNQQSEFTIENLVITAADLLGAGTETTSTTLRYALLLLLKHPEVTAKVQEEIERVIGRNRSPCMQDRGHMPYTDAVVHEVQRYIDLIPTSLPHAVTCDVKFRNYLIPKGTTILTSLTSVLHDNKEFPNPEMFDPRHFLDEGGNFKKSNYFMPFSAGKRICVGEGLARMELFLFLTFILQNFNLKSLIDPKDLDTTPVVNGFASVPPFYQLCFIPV
Sequence of CYP2C9 (P11712 whole entry): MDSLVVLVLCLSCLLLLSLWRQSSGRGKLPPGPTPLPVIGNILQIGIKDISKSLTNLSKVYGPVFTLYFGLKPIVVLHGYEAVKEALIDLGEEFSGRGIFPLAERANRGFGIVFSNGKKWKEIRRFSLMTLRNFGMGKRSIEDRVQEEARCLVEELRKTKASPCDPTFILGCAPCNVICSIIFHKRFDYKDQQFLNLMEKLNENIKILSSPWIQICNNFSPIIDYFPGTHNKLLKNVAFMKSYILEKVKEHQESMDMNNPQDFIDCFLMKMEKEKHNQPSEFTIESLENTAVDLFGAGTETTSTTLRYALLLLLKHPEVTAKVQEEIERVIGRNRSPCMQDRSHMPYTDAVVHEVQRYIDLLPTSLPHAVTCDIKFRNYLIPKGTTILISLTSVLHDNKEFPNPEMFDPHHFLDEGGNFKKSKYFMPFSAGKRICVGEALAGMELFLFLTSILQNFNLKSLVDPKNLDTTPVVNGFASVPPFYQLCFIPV
Sequence of CYP2D6 (P10635 whole entry): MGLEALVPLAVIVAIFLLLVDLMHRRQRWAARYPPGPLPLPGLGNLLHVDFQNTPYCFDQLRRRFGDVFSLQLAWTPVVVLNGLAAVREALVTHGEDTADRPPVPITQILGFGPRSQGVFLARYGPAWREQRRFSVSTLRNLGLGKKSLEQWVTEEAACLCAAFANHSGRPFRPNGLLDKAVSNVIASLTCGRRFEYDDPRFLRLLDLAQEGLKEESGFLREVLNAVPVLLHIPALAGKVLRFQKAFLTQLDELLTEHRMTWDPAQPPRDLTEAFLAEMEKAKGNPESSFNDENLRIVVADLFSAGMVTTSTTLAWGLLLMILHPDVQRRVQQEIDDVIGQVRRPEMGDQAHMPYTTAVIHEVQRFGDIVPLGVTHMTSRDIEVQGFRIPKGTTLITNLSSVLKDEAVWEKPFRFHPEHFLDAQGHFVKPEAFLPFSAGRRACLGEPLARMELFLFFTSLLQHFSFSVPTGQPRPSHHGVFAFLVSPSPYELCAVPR
Sequence of hERG (Q12809 whole entry): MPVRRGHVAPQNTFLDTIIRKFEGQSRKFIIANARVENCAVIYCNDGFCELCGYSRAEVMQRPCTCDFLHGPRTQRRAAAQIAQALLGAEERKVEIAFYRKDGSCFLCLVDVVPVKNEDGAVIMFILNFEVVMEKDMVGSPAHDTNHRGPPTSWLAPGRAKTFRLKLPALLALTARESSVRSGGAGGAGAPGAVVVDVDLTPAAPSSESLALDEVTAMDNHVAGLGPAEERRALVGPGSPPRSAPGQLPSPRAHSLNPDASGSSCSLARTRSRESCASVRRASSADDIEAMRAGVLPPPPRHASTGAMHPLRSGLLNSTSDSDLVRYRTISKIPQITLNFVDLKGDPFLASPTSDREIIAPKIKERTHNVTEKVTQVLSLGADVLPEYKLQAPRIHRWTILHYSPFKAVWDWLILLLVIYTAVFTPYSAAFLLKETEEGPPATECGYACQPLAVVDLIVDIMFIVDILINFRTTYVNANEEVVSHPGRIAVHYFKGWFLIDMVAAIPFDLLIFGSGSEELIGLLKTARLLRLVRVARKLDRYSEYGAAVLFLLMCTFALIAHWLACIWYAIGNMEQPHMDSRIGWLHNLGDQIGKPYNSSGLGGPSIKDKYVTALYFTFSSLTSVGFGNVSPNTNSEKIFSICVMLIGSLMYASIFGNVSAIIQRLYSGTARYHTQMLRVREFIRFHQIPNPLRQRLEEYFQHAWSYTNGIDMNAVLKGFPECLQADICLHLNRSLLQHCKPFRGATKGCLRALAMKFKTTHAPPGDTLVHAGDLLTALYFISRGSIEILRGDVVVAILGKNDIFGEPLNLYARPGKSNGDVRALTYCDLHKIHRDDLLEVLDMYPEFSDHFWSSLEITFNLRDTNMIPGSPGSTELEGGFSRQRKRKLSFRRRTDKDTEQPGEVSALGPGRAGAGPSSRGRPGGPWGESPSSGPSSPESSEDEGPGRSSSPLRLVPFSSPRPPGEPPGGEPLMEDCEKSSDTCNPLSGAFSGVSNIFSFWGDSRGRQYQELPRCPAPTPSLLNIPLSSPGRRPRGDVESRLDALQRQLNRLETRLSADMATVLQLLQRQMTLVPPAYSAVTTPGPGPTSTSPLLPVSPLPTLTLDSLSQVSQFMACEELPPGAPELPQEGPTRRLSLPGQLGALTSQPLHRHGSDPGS
Sequence of CYP3A4 (P08684 whole entry): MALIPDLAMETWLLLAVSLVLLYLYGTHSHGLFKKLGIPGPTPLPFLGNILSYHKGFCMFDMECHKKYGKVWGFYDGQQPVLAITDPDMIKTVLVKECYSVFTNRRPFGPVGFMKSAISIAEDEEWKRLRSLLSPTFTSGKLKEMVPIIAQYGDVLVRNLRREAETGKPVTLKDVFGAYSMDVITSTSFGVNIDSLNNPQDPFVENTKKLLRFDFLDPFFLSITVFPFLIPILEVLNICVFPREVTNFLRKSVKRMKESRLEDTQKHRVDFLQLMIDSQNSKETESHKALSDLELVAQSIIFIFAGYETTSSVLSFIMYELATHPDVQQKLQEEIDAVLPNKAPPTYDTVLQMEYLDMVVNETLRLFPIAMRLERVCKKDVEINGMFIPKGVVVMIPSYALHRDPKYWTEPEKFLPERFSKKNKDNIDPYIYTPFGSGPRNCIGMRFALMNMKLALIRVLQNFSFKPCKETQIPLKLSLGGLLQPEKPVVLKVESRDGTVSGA

Compound: Fc1ccc(Nc2c(-c3ccccn3)nc3ccc(C4CC4)cn23)cc1 [Compound 3p, 6-Cyclopropyl-N-(4-fluorophenyl)-2-(pyridin-2-yl)imidazo[1,2-a]pyridin-3-amine]
- IC50 (hERG): 12.6 µM
- IC50 (CYP1A2): 0.59 µM
- CYP1A2 inhibition, classification (CYP1A2; inhibitor class in words): strong inhibitor
- EC50 ([1]; Leishmania infantum, 120 h, read-out: L.inf pEC50 (converted)): 6.31 µM
- SI ([1]; ratio CC50 μM (PMM)/EC50 μM (L.inf)): 1
- IC50 (CYP2C8): 4.9 µM
- CYP2C8 inhibition, classification (CYP2C8; inhibitor class in words): moderate inhibitor
- IC50 (CYP2C9): 0.76 µM
- CYP2C9 inhibition, classification (CYP2C9; inhibitor class in words): strong inhibitor
- microsomal CLint at 3 µM [2]: 91.6 µL/min/mg
- CC50 at 5 days [3]: 7.94 µM
- IC50 (CYP2C19): 1.8 µM
- CYP2C19 inhibition, classification (CYP2C19; inhibitor class in words): moderate inhibitor
- Papp A→B at 2 h, 10 µM [4]: 16.7 ×10⁻⁶ cm/s
- aq. sol. [5]: 0.7 µM
- CYP3A4 inhibition, classification (CYP3A4): moderate inhibition
- CYP2D6 inhibition, classification (CYP2D6): moderate inhibition
- hepatocyte CLint [6]: 148 µL/min/1e6 cells
